According to patent publication US20110137235A1, “ULTRASONIC CANCER THERAPY ACCELERATOR” (TOTO Ltd., priority 2008, published 2011):

Settings: 20 mmol/liter acetic acid-sodium acetate buffer pH 3.6, 40° C., 25 hr
Excerpt: The titanium oxide complex particles and the dihydroxyphenylpropionic acid obtained in Example 1 were mixed together in 1) a 20 mmol/liter acetic acid-sodium acetate buffer solution (pH=3.6), 2) a 20 mmol/liter MES buffer solution (manufactured by Dojindo; pH=6.0), and 3) a 20 mmol/liter HEPES buffer solution (manufactured by Dojindo; pH=8.1) so that the final concentration of the titanium oxide complex particles and the final concentration of the dihydroxyphenylpropionic acid in the resultant mixed solutions were 2% and 50 mmol/liter, respectively. The total volume of each of the mixed solution was adjusted to 0.8 ml.
The adjusted solutions were stirred at 40° C. for 25 hr. For each solution, an absorption spectrum was measured in an ultraviolet-visible range (200 to 600 nm) with an ultraviolet-visible spectrometer.

For `O=C(O)CCc1ccc(O)c(O)c1` [dihydroxyphenylpropionic acid], the “Change in absorption spectrum versus zero hr” value was “little or no change was observed in the absorption spectrum”.
